Experimental data from US8440637B2, “Combination treatment for the treatment of hepatitis C virus infection” (priority 2007, dated 2013).
Strand notation (5' to 3'): a small letter for the sugar, then the base; units joined by * are phosphorothioate-linked, units joined directly phosphodiester-linked; [ ] holds rarer units or linkages, { } end groups; capitals alone tell only the bases. l = locked nucleic acid (LNA); [5mC] = 5-methylcytosine; d = 2'-deoxy (DNA)

Columns and labels:
ApoB-100 mRNA [1] = assay: ApoB-100 mRNA expression in liver by qPCR after dosing apoB antisense oligonucleotides; type: in vivo, mouse; details: for ApoB-100 mRNA down-regulation (in words): 10, 15 or 25 mg/kg SEQ ID NO 34, 25 mg/kg SEQ ID NO 17; for down regulation of ApoB-100 mRNA relative to saline: single dose of 10, 15 or 25 mg/kg, C57BL/6 female mice, 24 hours after dosing; for reduction of ApoB-100 mRNA expression: day 8
Experimental: (§1) In this study 5 mg/kg/dose were dosed on 3 consecutive days (one dose/day i.v.) and animals were sacrificed 24 hours after last dosing. At sacrifice, liver and retro orbital sinus blood was sampled. Serum was prepared from blood for analysis of cholesterol. RNA was isolated from the liver and the expression of ApoB-100 mRNA was measured.
(§2) In this study three different concentrations (10, 15 and 25 mg/kg) of SEQ ID NO 17 (Table 1) and SEQ ID NO 34 (Table 1) were examined for duration of action on ApoB-100 mRNA expression and serum cholesterol level. SEQ ID NO 17 and SEQ ID NO 34 were given as a single dose of 10, 15 or 25 mg/kg to C57BL/6 female mice. Mice were sacrificed at different time points (1, 3, 5 and 8 days) after dosing; liver and serum were examined for ApoB-100 mRNA expression, liver oligonucleotide concentration and cholesterol and ALT, respectively.
(§3) Liver sampled at sacrifice was analysed for ApoB-100 mRNA expression by qPCR. Data was normalized to Gapdh and presented relative to the data obtained by dosing saline. One dose of 10, 15 or 25 mg/kg of SEQ ID NO 17 or SEQ ID NO 34 was very effective to down regulate ApoB-100 mRNA in liver (FIG. 3).
A single dose of SEQ ID NO 17 (Table 1) and SEQ ID NO 34 (Table 1) at different concentrations was administered to C57BL/6J mice to find ED50 values for cholesterol. Duration of action was also included in this study, because we previously have seen that maximum effect of a single dose not always was achieved 24 hours after dosing. […] In this study we therefore have chosen lower concentrations (1, 2.5 and 5 mg/kg).
Liver sampled at sacrifice was analysed for ApoB-100 mRNA expression by qPCR. Data was normalized to Gapdh and presented relative to the data obtained by dosing saline. One dose of 10, 15 or 25 mg/kg of SEQ ID NO 17 or SEQ ID NO 34 was very effective to down regulate ApoB-100 mRNA in liver (FIG. 5).
The effect on ApoB-100 mRNA was examined at different days after dosing 1.0 or 5.0 mg/kg (one dose day 0) of the three LNA antisense oligonucleotides 12-mer SEQ ID NO 34 (Table 1), SEQ ID NO 26 (Table 1) 13-mer and 14-mer SEQ ID NO 17 (Table 1) all targeting ApoB mRNA.
as §3, with “Dosing 3* 1” for “One dose of 10, 15”, “5” for “25”, “of SEQ ID NO 34,” for “of”, “26” for “34”, “7). […] SEQ ID NO 17 dosed 3* 1 mg/kg/dose or 5 mg/kg/dose down regulated target mRNA with 50% and 70% respectively.” for “3).”

ApoB-100 mRNA [2] = assay: Serum total cholesterol after dosing apoB antisense oligonucleotides; type: in vivo, mouse
Experimental: Total cholesterol level is measured in plasma using a colometric assay Cholesterol CP from ABX Pentra. The cholesterol is measured following enzymatic hydrolysis and oxidation. 21.5 μL water was added to 1.5 μL plasma. 250 μL reagent is added and within 5 min the cholesterol content is measured at a wavelength of 540 nm. Measurements on each animal was made in duplicates. The sensitivity and linearity was tested with 2 fold diluted control compound (ABX Pentra N control). The relative Cholesterol level was determined by subtraction of the background and presented relative to the cholesterol levels in plasma of saline treated mice.
as §1, §2
Blood serum used to measure cholesterol was sampled at sacrifice. Twenty-four hours after dosing SEQ ID NO 17 serum total cholesterol was reduced 25-40%, and dosing SEQ ID NO 34 gave 40-55% reduction in total cholesterol. At day 3, the total cholesterol level was further reduced: SEQ ID NO 17 gave 70-90% reduction in a dose dependent manner after doing 10, 15 or 25 mg/kg. SEQ ID NO 34 reduced total cholesterol with 90-95% relative to the saline control group. At day 5-8 the total cholesterol level increased in all groups except the group dosed SEQ ID NO 17 at 10 mg/kg. (FIG. 4.).
Blood serum was sampled at sacrifice and used to measure cholesterol. The serum total cholesterol level reflected the mRNA expression of ApoB-100; dose dependent reduction with best effect at 5 days after dosing SEQ ID NO 17 at 1 and 2.5 mg/kg and similar effect at days 3, 5 and 8 after dosing 5 mg/kg (50% reduction). Dose dependent effect was also obtained after dosing SEQ ID NO 34 with best effect at day 3 after dosing 5 mg/kg (70% reduction) with following increase in cholesterol level (60% reduction at day 8 and 45% at day 16).
At sacrifice blood for serum was sampled and used to measure cholesterol.

miR-122a [3] = assay: Melting temperature (Tm) of LNA anti-miR/miR-122a RNA duplex; type: physicochemical, human; details: Table 2; towards synthetic miR-122a RNA oligonucleotide with phosphorothioate linkages; PS backbone
Experimental: The melting temperatures were assessed towards the mature miR-122a sequence, using a synthetic miR-122a RNA oligonucleotide with phosphorothioate linkaged.
The LNA anti-miR/miR-122a oligo duplex was diluted to 3 μM in 500 μl RNase free H2O, which was then mixed with 500 μl 2× dimerization buffer (final oligo/duplex conc. 1.5 μM, 2× Tm buffer: 200 mM NaCl, 0.2 mM EDTA, 20 mM NaP, pH 7.0, DEPC treated to remove RNases). The mix was first heated to 95 degrees for 3 minutes, then allowed to cool at room temperature (RT) for 30 minutes.
Following RT incubation Tm was measured on Lambda 40 UV/VIS Spectrophotometer with peltier temperature progammer PTP6 using PE Templab software (Perkin Elmer). The temperature was ramped up from 20° C. to 95° C. and then down again to 20° C., continuously recording absorption at 260 nm. First derivative and local maximums of both the melting and annealing was used to assess melting/annealing point (Tm), both should give similar/same Tm values. For the first derivative 91 points was used to calculate the slope.

miR-122a [4] = assay: miR-122a levels in mouse liver by microRNA specific qPCR; type: in vivo; details: 25 mg/kg i.v. on 3 successive days; 24 hour after last dose
Experimental: Total RNA was extracted from liver samples as described above and analysed for miR-122a levels by microRNA specific QPCR.
In vivo study: Ten groups of animals (female C57/BL6; 3 mice per group) were treated in the following manner. Group 1 animals were injected with 0.2 ml saline by i.p. on day 0, day 2 and day 4. Groups 2-10 were dosed by i.p. with three different conc. (25 mg/kg, 5 mg/kg and 1 mg/kg) of either LNA antimiR-122a/SEQ ID NO: 61 (group 2-4), LNA antimir-122a/SEQ ID NO: 66 (group 5-7) or LNA antimir-122a/SEQ ID NO: 63 (group 8-10); the LNA antimir-122a sequences are given in the Table 1. All three LNA antimiR-122a oligonucleotides target the liver-specific miR-122a. The doses were calculated from the Day 0 body weights of each animal.
The animals were sacrificed 48 hours after last dose (Day 6), retro-orbital blood was collected in tubes containing EDTA and the plasma fraction harvested and stored frozen −80° C. for cholesterol analysis. At sacrifice livers were dissected and one portion was cut into 5 mm cubes and immersed in 5 volumes of ice-cold RNAlater. A second portion was snap frozen in liquid nitrogen and stored for cryo-sectioning.
Total RNA was extracted from liver samples using Trizol reagent according to the manufacturer's recommendations (Invitrogen, USA) and analysed for miR-122a levels by microRNA-specific QPCR according to the manufacturer's recommendations (Ambion, USA). […]
NMRI female mice were treated with indicated doses of LNA-antimiR (SEQ ID NO: 61) along with a mismatch control (m, SEQ ID NO: 65), saline and antagomir (SPC3595) for three consecutive days and sacrificed 24 hours after last dose (as in example 11 “old design”, n=5). miR-122 levels were analyzed by qPCR and normalized to the saline treated group.
C57BL/6J female mice were fed on high fat diet for 13 weeks before the initiation of the SEQ ID NO: 63 treatment. […] Both hypercholesterolemic and normal mice were treated i.p. twice weekly with 5 mg/kg SEQ ID NO: 63 and the corresponding mismatch control for a study period of 5½ weeks. Blood samples were collected weekly and total plasma cholesterol was measured during the entire course of the study. Upon sacrificing the mice, liver and blood samples were prepared for total RNA extraction, miRNA and mRNA quantification, assessment of the serum transaminase levels, and liver histology.
The miR-122 and let-7a microRNA levels were quantified with TaqMan microRNA Assay (Applied Biosystems) following the manufacturer's instructions. The RT reaction was diluted ten times in water and subsequently used for real time PCR amplification according to the manufacturer's instructions. A two-fold cDNA dilution series from liver total RNA of a saline-treated animal or mock transfected cells cDNA reaction (using 2.5 times more total RNA than in samples) served as standard to ensure a linear range (Ct versus relative copy number) of the amplification. Applied Biosystems 7500 or 7900 real-time PCR instrument was used for amplification.

[5] = liver, 3 doses of 5 mg/kg/dose i.v. on consecutive days, 24 hours after last dosing
[6] = single dose of 10, 15 or 25 mg/kg, 24 hours after dosing
[7] = single dose of 10, 15 or 25 mg/kg, day 3

## 5′-AsGs^MeCsaststsgsgstsastsTs^MeCsA-3′ (antisense lA*lG*l[5mC]*dA*dT*dT*dG*dG*dT*dA*dT*lT*l[5mC]*lA) [SEQ ID NO: 17]
ApoB-100 mRNA [1]
  ApoB-100 mRNA down-regulation (in words): completely down-regulated
ApoB-100 mRNA [1]; [5]
  down regulation of ApoB-100 mRNA: about 75%
ApoB-100 mRNA [1]; liver, dosing 3*1 mg/kg i.v.
  down regulation of ApoB-100 mRNA: 50%
ApoB-100 mRNA [1]; liver, dosing 3*5 mg/kg i.v.
  down regulation of ApoB-100 mRNA: 70%
ApoB-100 mRNA [1]; liver
  down regulation of ApoB-100 mRNA relative to saline: 70-85%
ApoB-100 mRNA [1]; single dose 5 mg/kg
  reduction of ApoB-100 mRNA expression: 75%
ApoB-100 mRNA [1]; single dose of 1, 2.5 or 5 mg/kg, C57BL/6J mice
  duration of dose dependent down regulation of ApoB-100 mRNA: 5 days
ApoB-100 mRNA [2]; dosing 3*1 mg/kg
  reduction of serum cholesterol: 40%
ApoB-100 mRNA [2]; dosing 3*5 mg/kg/dose
  reduction of serum cholesterol: 70%
ApoB-100 mRNA [2]; single dose 5 mg/kg, days 3, 5 and 8
  reduction of serum total cholesterol: 50%
ApoB-100 mRNA [2]; [6]
  reduction of serum total cholesterol: 25-40%
ApoB-100 mRNA [2]; [7]
  reduction of serum total cholesterol: 70-90%

## 5′-AsGs^MeCsaststsgsgstsastsTs^MeCsAsg-3′ (antisense lA*lG*l[5mC]*dA*dT*dT*dG*dG*dT*dA*dT*lT*l[5mC]*lA*dG) [SEQ ID NO: 16]
ApoB-100 mRNA [1]; [5]
  down regulation of ApoB-100 mRNA: 25-30%
ApoB-100 mRNA [2]; 3 doses of 5 mg/kg/dose i.v., at sacrifice, day 3
  reduction of serum total cholesterol: about 18%

## 5′-CCAttgtcacacTCCa-3′ (antisense l[5mC]*l[5mC]*lA*dT*dT*dG*dT*dC*dA*dC*dA*dC*lT*l[5mC]*l[5mC]*dA) [SEQ ID NO: 62]
miR-122a [3]
  Tm (° C.): 69 °C

## 5′-Gs^MeCsaststsgsgstsastsTs^MeC-3′ (antisense lG*l[5mC]*dA*dT*dT*dG*dG*dT*dA*dT*lT*l[5mC]) [SEQ ID NO: 34]
ApoB-100 mRNA [1]
  ApoB-100 mRNA down-regulation (in words): completely down-regulated
ApoB-100 mRNA [1]; [5]
  down regulation of ApoB-100 mRNA: about 75%
ApoB-100 mRNA [1]; liver, dosing 3*1 mg/kg i.v.
  down regulation of ApoB-100 mRNA: 60%
ApoB-100 mRNA [1]; liver, dosing 3*5 mg/kg i.v.
  down regulation of ApoB-100 mRNA: 90%
ApoB-100 mRNA [1]; liver
  down regulation of ApoB-100 mRNA relative to saline: 90-95%
ApoB-100 mRNA [1]; single dose 2.5 mg/kg
  reduction of ApoB-100 mRNA expression: 75%
ApoB-100 mRNA [1]; single dose 5 mg/kg, day 16
  ApoB-100 mRNA down regulation: 75%
ApoB-100 mRNA [1]; single dose 5 mg/kg, days 5-16
  down regulation of ApoB-100 mRNA: about 75%
ApoB-100 mRNA [2]; 3 doses of 5 mg/kg/dose i.v., day 3, oligos of different length compared
  effect on serum total cholesterol (in words): the best or the most potent effect
ApoB-100 mRNA [2]; dosing 3*1 mg/kg
  reduction of serum cholesterol: 60%
ApoB-100 mRNA [2]; single dose 5 mg/kg, day 3
  reduction of serum total cholesterol: 70%
ApoB-100 mRNA [2]; single dose 5 mg/kg, day 8
  reduction of serum total cholesterol: 60%
ApoB-100 mRNA [2]; single dose 5 mg/kg, day 16
  reduction of serum total cholesterol: 45%
ApoB-100 mRNA [2]; [6]
  reduction of serum total cholesterol: 40-55%
ApoB-100 mRNA [2]; [7]
  reduction of serum total cholesterol: 90-95%

## 5′-Gs^MeCsaststsgsgstsastsTs^MeCsA-3′ (antisense lG*l[5mC]*dA*dT*dT*dG*dG*dT*dA*dT*lT*l[5mC]*lA) [SEQ ID NO: 26]
ApoB-100 mRNA [1]; liver, dosing 3*1 mg/kg i.v.
  down regulation of ApoB-100 mRNA: 60%
ApoB-100 mRNA [1]; liver, dosing 3*5 mg/kg i.v.
  down regulation of ApoB-100 mRNA: 90%
ApoB-100 mRNA [2]; dosing 3*1 mg/kg
  reduction of serum cholesterol: 60%

## 5′-cCatTgtCacActCca-3′ (antisense dC*l[5mC]*dA*dT*lT*dG*dT*l[5mC]*dA*dC*lA*dC*dT*l[5mC]*dC*dA) [SEQ ID NO: 60]
miR-122a [3]
  Tm (° C.): 75 °C

## 5′-ccAttGtcTcaAtcCa-3′ (antisense dC*dC*lA*dT*dT*lG*dT*dC*lT*dC*dA*lA*dT*dC*l[5mC]*dA) [SEQ ID NO: 65, reference compound]
miR-122a [3]
  Tm (° C.): 46 °C
miR-122a [4]
  miR-122a inhibition in liver (in words): no miR-122a inhibition was detected
